According to patent US20060100140A1, “Combination of a) n-{5-[4-(4-methyl-piperazino-methyl)-benzoylamido]2-methylphenyl}-4- (3-pyridyl)-2-pyrimidine-amine and b) a histone deacetylase inhibitor for the treatment of leukemia” (priority 2002, published 2006):

Columns and labels:
Assay type in all cases: cell-based, human
[1] = tested on: LAMA 84 cells; experiment: Apoptosis by cytospin slides
Method: (§1) Experimental Format: Logarithmically growing cells are placed in sterile plastic T-flasks (Corning, Corning, N.Y.) to which are added the designated drugs and the flasks replaced in the incubator for intervals. At the end of the incubation period, cells are transferred to sterile centrifuge tubes, pelleted by centrifugation at 400×g for 10 min at room temperature, and prepared for analysis as described below.
(§2) Assessment of Apoptosis: After drug exposures, cytocentrifuge preparations are stained with Wright-Giemsa and viewed by light microscopy to evaluate the extent of apoptosis (i.e., cell shrinkage, nuclear condensation, formation of apoptotic bodies, etc.) as described previously (Yu et al., Nat. Rev. Cancer 1:294-202). For these studies, the percentage of apoptotic cells is determined by evaluating ≧500 cells/condition in triplicate. To confirm the results of morphological analysis, Annexin V/PI staining is used. Annexin V/PI (BD PharMingen, San Diego, Calif.) analysis of cell death is carried out as per the manufacturer's instructions. In studies involving TNF and TNF soluble receptor, both compound are combined and maintained at room temperature 20 min prior to use. For these experiments 1-2×10^5 cells per condition are harvested. Analysis is carried out using a Becton-Dickinson FACScan cytofluorometer (Mansfield, Mass.). To further confirm the morphology results, TUNEL staining is used. For TUNEL staining, cytocentrifuge preparations are obtained and fixed with 4% formaldehyde. The slides are treated with acetic acid/ethanol (1:2), stained with terminal transferase reaction mixture containing 1× terminal transferase reaction buffer (0.25 units/μl terminal transferase, 2.5 mM CoCl2, and 2 pmol fluorescein-12-dUTM; Boehringer Mannheim, Indianapolis, Ind.), and visualized using fluorescence microscopy.

[2] = tested on: K562 cells; experiment: Apoptosis by morphological analysis of Wright Giemsa-stained cytospin preparations; details: for percentage of apoptotic cells: Table 2A, 2.0 μM SAHA ± 250 nM Compound I; for % of apoptotic cells: Table 5, K562: SAHA […]
Method: as §1, §2

[3] = tested on: K562 cells; experiment: Erythroid differentiation by hemoglobin (Hgb) production; details: 2.0 μM SAHA ± 250 nM Compound I
Description: In each case, values represent the means±S.D. for three separate experiments.

[4] = tested on: Compound I-resistant K562 cells (K562R); experiment: Apoptosis by Wright Giemsa-stained cytospin slides in resistant cells; details: Table 7, 24 hr, Compound I (1.0 or 1.25 μM), SAHA (1.0 or 2.0)
Method: as §2, with “For TUNEL staining, cytocentrifuge preparations are obtained and fixed with 4% formaldehyde.” left out

[5] = tested on: p21^CIP1; experiment: Western analysis of p21CIP1 in K562 cells; details: 2.0 μM SAHA ± 250 nM Compound I
Method: Immunoblot Analysis: Immunoblotting is performed as described previously (Yu et al., Nat. Rev. Cancer 1:294-202). In brief, after drug treatment cells are pelleted by centrifugation, and lysed immediately in Laemmli buffer [1×=30 mM Tris-base (pH 6.8), 2% SDS, […] β-mercaptoethanol, and 10% glycerol], and briefly sonicated. Homogenates are quantified using Coomassie protein assay reagent (Pierce, Rockford, Ill.). Equal amounts of protein (20 μg) are boiled for 10 min, separated by SDS-PAGE (5% stacker and 10% resolving), and electroblotted to nitrocellulose membrane. After blocking in TBS-T (0.05%) and 5% milk for 1 h at 22° C., the blots are incubated in fresh blocking solution with an appropriate dilution of primary antibody for 4 h at 22° C. […]
K562 cells are treated as above, and monitored for expression of Bcl-xL, Mcl-1, and XIAP. […]

[6] = tested on: LAMA 84 cells; experiment: Annexin V/PI flow cytometry of cell death; details: 200 nM Compound I ± 1.0 μM SAHA for 24 hr
Method: as §2, with “For” for “Assessment of Apoptosis: After drug exposures, cytocentrifuge preparations are stained with Wright-Giemsa and viewed by light microscopy to evaluate the extent of apoptosis (i.e., cell shrinkage, nuclear condensation, formation of apoptotic bodies, etc.) as described previously (Yu et al., Nat. Rev. Cancer 1:294-202). For”

Cc1ccc(NC(=O)c2ccc(CN3CCN(C)CC3)cc2)cc1Nc1nccc(-c2cccnc2)n1 [Compound I, N-{5-[4-(4-methyl-piperazino-methyl)-benzoylamido]-2-methylphenyl}-4-(3-pyridyl)-2-pyrimidine-amine]
Compound I + SB % of apoptotic cells ([1]; Table 6, LAMA 84, 24 hr, sodium butyrate (SB; 1 or 2 mM), Compound I concentration not given): 9.3 ± 3.8% | cell death ([1]; sensitive LAMA 84, Compound I (1.0 or 1.25 μM) for 48 hr, data not shown): ~100% | apoptosis ([2]; Table 1A, Compound I 100 nM, SAHA 0 or 2 μM, 24 hr): 1.1 ± 0.5% | apoptosis ([2]; Table 1A, Compound I 150 nM, SAHA 0 or 2 μM, 24 hr): 1.3 ± 0.6% | apoptosis ([2]; Table 1A, Compound I 200 nM, SAHA 0 or 2 μM, 24 hr): 1.6 ± 0.6% | apoptosis ([2]; Table 1A, Compound I 250 nM, SAHA 0 or 2 μM, 24 hr): 2.8 ± 1.2% | apoptosis ([2]; Table 1B, SAHA 0 μM, Compound I 250 nM, 24 hr): 2.7 ± 1.2% | percentage of apoptotic cells ([2]; 0 hours): 0.6 ± 0.2% | percentage of apoptotic cells ([2]; 6 hours): 1.1 ± 0.5% | percentage of apoptotic cells ([2]; 12 hours): 2.1 ± 0.8% | percentage of apoptotic cells ([2]; 18 hours): 3.3 ± 1.0% | percentage of apoptotic cells ([2]; 24 hours): 3.5 ± 1.2% | percentage of apoptotic cells ([2]; 48 hours): 21.8 ± 3.4% | % of apoptotic cells ([2]; Compound I 250 nM, 24 hr): 8.3 ± 3.2% | Compound I + SB % of apoptotic cells ([2]; Table 6, K562, 24 hr, sodium butyrate (SB; 1 or 2 mM), Compound I concentration not given): 10.3 ± 3.6% | cell death ([2]; sensitive K562, Compound I (1.0 or 1.25 μM) for 48 hr, data not shown): ~100%

O=C(CCCCCCC(=O)Nc1ccccc1)NO [SAHA, suberoylanilide hydroxamic acid]
increase in Hgb production ([3]; 24-hr exposure): ~50% | Hgb production ([3]; 48 hr, data not shown): substantial increases | Compound I + SAHA % of apoptotic cells [4]: 6.8 ± 3.5% | induction of p21^CIP1 [5]: robust induction | % Annexin V/PI [6]: 15.2 ± 2.4% | apoptosis ([2]; Table 1B, SAHA 1 μM, Compound I 0 or 250 nM, 24 hr): 0.8 ± 0.4% | apoptosis ([2]; Table 1B, SAHA 1.5 μM, Compound I 0 or 250 nM, 24 hr): 1.6 ± 0.7% | apoptosis ([2]; Table 1B, SAHA 2.0 μM, Compound I 0 or 250 nM, 24 hr): 2.7 ± 0.7% | apoptosis ([2]; Table 1B, SAHA 3.0 μM, Compound I 0 or 250 nM, 24 hr): 28.4 ± 3.2% | apoptosis ([2]; Table 1B, SAHA […], Compound I 0 or 250 nM, 24 hr): 14.5 ± 1.3% | percentage of apoptotic cells ([2]; 0 hours): 0.6 ± 0.2% | percentage of apoptotic cells ([2]; 6 hours): 0.9 ± 0.2% | percentage of apoptotic cells ([2]; 12 hours): 1.7 ± 0.5% | percentage of apoptotic cells ([2]; 18 hours): 2.3 ± 0.8% | percentage of apoptotic cells ([2]; 24 hours): 3.5 ± 1.1% | percentage of apoptotic cells ([2]; 48 hours): 14.8 ± 2.1% | % of apoptotic cells ([2]; Compound I 250 nM, 24 hr): 6.6 ± 3.8%
